Assay results from US11085056B2, “Transfection complexes and methods of using the same” (MOLECULAR TRANSFER, INC., priority 2015, dated 2021).

Key:
[1] = tested on: HeLa Cells; assay: Transfection of HeLa cells with DOTMA/DOPE/peptide and eGFP plasmid, fluorescent plate reader; type: cell-based; details: DOTMA/DOPE 1:1 plus peptide with RRRRRRRRRRRR (SEQ ID NO: 109) at n terminus; EF1Alpha eGFP plasmid; 0.01 mL complex; 42 hours
Summary of the method: (§1)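 Cells at 60-70% confluence got DOTMA/DOPE (1:1) mixed with peptides bearing an N-terminal R12 DNA-binding tag, complexed 10 min with EF1α-eGFP plasmid (5 μg/mL in OptiMEM); 0.01 or 0.02 mL complex per well. After 42 h at 37 °C, GFP read by fluorescence plate reader and % transfected cells by microscopy, relative to lipid without peptide.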

[2] = tested on: HuVec Cells; assay: Transfection of HuVec cells with DOTMA/DOPE/peptide and eGFP plasmid, fluorescent plate reader; type: cell-based; details: DOTMA/DOPE 1:1 plus peptide with RRRRRRRRRRRR (SEQ ID NO: 109) at n terminus; EF1Alpha eGFP plasmid; 0.01 mL complex; 42 hours
Summary of the method: as §1

[3] = tested on: NL-1 iPS Cells; assay: Transfection of NL-1 iPS cells with DOTMA/DOPE/peptide and eGFP plasmid, fluorescent plate reader; type: cell-based; details: DOTMA/DOPE 1:1 plus peptide with RRRRRRRRRRRR (SEQ ID NO: 109) at n terminus; EF1Alpha eGFP plasmid; 42 hours
[4] = tested on: C2C12 Cells; assay: Transfection of C2C12 cells with DOTMA/DOPE/peptide and eGFP plasmid, fluorescent plate reader; type: cell-based, mouse; details: DOTMA/DOPE 1:1 plus peptide with RRRRRRRRRRRR (SEQ ID NO: 109) at n terminus; EF1Alpha eGFP plasmid; 0.02 mL complex; 42 hours
Summary of the method: as §1

[5] = tested on: Human Fibroblast Cells; assay: Transfection of human fibroblast cells with DOTMA/DOPE/peptide and eGFP plasmid, fluorescent plate reader; type: cell-based; details: DOTMA/DOPE 1:1 plus peptide with RRRRRRRRRRRR (SEQ ID NO: 109) at n terminus; EF1Alpha eGFP plasmid; 0.01 mL complex; 42 hours
Summary of the method: as §1

[6] = tested on: Jurkat Cells; assay: Transfection of Jurkat cells with DOTMA/DOPE/peptide and eGFP plasmid, fluorescent plate reader; type: cell-based; details: DOTMA/DOPE 1:1 plus peptide with RRRRRRRRRRRR (SEQ ID NO: 109) at n terminus; EF1Alpha eGFP plasmid; 0.02 mL complex; 42 hours
Summary of the method: as §1

[7] = tested on: HeLa Cells; assay: Transfection of HeLa cells with DOTMA/SEQ ID NO: 72/peptide compared with Lipofectamine 2000; type: cell-based; details: fusogenic peptide 0.1 mg/mL
Summary of the method: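 HeLa cells at 60–70% confluence received 0.01 mL of complexes of EF1Alpha eGFP plasmid (5 μg/mL in OptiMEM) with DOTMA/DOPE (1:1) plus R12-linked peptide, with fusogenic peptide at 0.1 mg/mL final. GFP read by fluorescence plate reader and microscopy (% cells transfected) after 42 h at 37 °C.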

[8] = tested on: some examined cell types; assay: Transfection expression and % cells transfected over the no peptide control; type: cell-based; details: on some examined cell types
Summary of the method: as §1

[9] = 0.1 μL of DOTMA/SEQ ID NO: 72/Peptide in well of a 96 well plate
[10] = 0.2 μL of DOTMA/SEQ ID NO: 72/Peptide in well of a 96 well plate
[11] = 0.3 μL of DOTMA/SEQ ID NO: 72/Peptide in well of a 96 well plate
[12] = 0.4 μL of DOTMA/SEQ ID NO: 72/Peptide in well of a 96 well plate

367 (TDIPPCPHGWISLWK; Peptidic transfection agent) [compound 367]
RF (Relative Fluorescence) of Transfection of HeLa Cells [1]: 39008 | RF (Relative Fluorescence) of Transfection of HuVec Cells [2]: 13354 | RF (Relative Fluorescence) of Transfection of NL-1 iPS Cells [3]: 17545 | RF (Relative Fluorescence) of Transfection of C2C12 Cells [4]: 16207 | RF (Relative Fluorescence) of Transfection of Human Fibroblast Cells [5]: 10036 | RF (Relative Fluorescence) of Transfection of Jurkat Cells [6]: 4365 | RF (Relative Fluorescence), DOTMA/SEQ ID NO: 72/Peptide, HeLa Cells [7, 9]: 10427 | RF (Relative Fluorescence), DOTMA/SEQ ID NO: 72/Peptide, HeLa Cells [7, 10]: 21411 | RF (Relative Fluorescence), DOTMA/SEQ ID NO: 72/Peptide, HeLa Cells [7, 11]: 23001 | RF (Relative Fluorescence), DOTMA/SEQ ID NO: 72/Peptide, HeLa Cells [7, 12]: 17529 | transfection expression and the % cells transfected over the no peptide control [8]: increased

348 (HQQDLGTAGSCLRKFSTM; Peptidic transfection agent) [compound 348]
RF (Relative Fluorescence) of Transfection of HeLa Cells [1]: 22289 | RF (Relative Fluorescence) of Transfection of HuVec Cells [2]: 21214 | RF (Relative Fluorescence) of Transfection of NL-1 iPS Cells [3]: 21645 | RF (Relative Fluorescence) of Transfection of C2C12 Cells [4]: 8625 | RF (Relative Fluorescence) of Transfection of Human Fibroblast Cells [5]: 11802 | RF (Relative Fluorescence) of Transfection of Jurkat Cells [6]: 15585 | RF (Relative Fluorescence), DOTMA/SEQ ID NO: 72/Peptide, HeLa Cells [7, 9]: 17413 | RF (Relative Fluorescence), DOTMA/SEQ ID NO: 72/Peptide, HeLa Cells [7, 10]: 18615 | RF (Relative Fluorescence), DOTMA/SEQ ID NO: 72/Peptide, HeLa Cells [7, 11]: 16164 | RF (Relative Fluorescence), DOTMA/SEQ ID NO: 72/Peptide, HeLa Cells [7, 12]: 15054 | transfection expression and the % cells transfected over the no peptide control [8]: increased

237 (KNSFMALYLSKG; Peptidic transfection agent) [compound 237]
RF (Relative Fluorescence) of Transfection of HeLa Cells [1]: 21288 | RF (Relative Fluorescence) of Transfection of HuVec Cells [2]: 2302 | RF (Relative Fluorescence) of Transfection of NL-1 iPS Cells [3]: 8632 | RF (Relative Fluorescence) of Transfection of C2C12 Cells [4]: 6491 | RF (Relative Fluorescence) of Transfection of Human Fibroblast Cells [5]: 2184 | RF (Relative Fluorescence) of Transfection of Jurkat Cells [6]: 1501 | RF (Relative Fluorescence), DOTMA/SEQ ID NO: 72/Peptide, HeLa Cells [7, 9]: 8986 | RF (Relative Fluorescence), DOTMA/SEQ ID NO: 72/Peptide, HeLa Cells [7, 10]: 9753 | RF (Relative Fluorescence), DOTMA/SEQ ID NO: 72/Peptide, HeLa Cells [7, 11]: 8015 | RF (Relative Fluorescence), DOTMA/SEQ ID NO: 72/Peptide, HeLa Cells [7, 12]: 8288 | transfection expression and the % cells transfected over the no peptide control [8]: increased

379 (TAGSCLRKF; Peptidic transfection agent) [compound 379]
RF (Relative Fluorescence) of Transfection of HeLa Cells [1]: 27424 | RF (Relative Fluorescence) of Transfection of HuVec Cells [2]: 14573 | RF (Relative Fluorescence) of Transfection of NL-1 iPS Cells [3]: 6894 | RF (Relative Fluorescence) of Transfection of C2C12 Cells [4]: 3189 | RF (Relative Fluorescence) of Transfection of Human Fibroblast Cells [5]: 8520 | RF (Relative Fluorescence) of Transfection of Jurkat Cells [6]: 7711 | RF (Relative Fluorescence), DOTMA/SEQ ID NO: 72/Peptide, HeLa Cells [7, 9]: 50018 | RF (Relative Fluorescence), DOTMA/SEQ ID NO: 72/Peptide, HeLa Cells [7, 10]: 47049 | RF (Relative Fluorescence), DOTMA/SEQ ID NO: 72/Peptide, HeLa Cells [7, 11]: 39036 | RF (Relative Fluorescence), DOTMA/SEQ ID NO: 72/Peptide, HeLa Cells [7, 12]: 26448 | transfection expression and the % cells transfected over the no peptide control [8]: increased

365 (ISRCQVCMKKRH; Peptidic transfection agent) [compound 365]
RF (Relative Fluorescence) of Transfection of HeLa Cells [1]: 36093 | RF (Relative Fluorescence) of Transfection of HuVec Cells [2]: 14764 | RF (Relative Fluorescence) of Transfection of NL-1 iPS Cells [3]: 6364 | RF (Relative Fluorescence) of Transfection of C2C12 Cells [4]: 5390 | RF (Relative Fluorescence) of Transfection of Human Fibroblast Cells [5]: 5219 | RF (Relative Fluorescence) of Transfection of Jurkat Cells [6]: 5298 | RF (Relative Fluorescence), DOTMA/SEQ ID NO: 72/Peptide, HeLa Cells [7, 9]: 26620 | RF (Relative Fluorescence), DOTMA/SEQ ID NO: 72/Peptide, HeLa Cells [7, 10]: 43775 | RF (Relative Fluorescence), DOTMA/SEQ ID NO: 72/Peptide, HeLa Cells [7, 11]: 36054 | RF (Relative Fluorescence), DOTMA/SEQ ID NO: 72/Peptide, HeLa Cells [7, 12]: 21540 | transfection expression and the % cells transfected over the no peptide control [8]: increased

268 (GGFLKYTVSYDI; Peptidic transfection agent) [compound 268]
RF (Relative Fluorescence) of Transfection of HeLa Cells [1]: 25885 | RF (Relative Fluorescence) of Transfection of HuVec Cells [2]: 5403 | RF (Relative Fluorescence) of Transfection of NL-1 iPS Cells [3]: 15697 | RF (Relative Fluorescence) of Transfection of C2C12 Cells [4]: 2568 | RF (Relative Fluorescence) of Transfection of Human Fibroblast Cells [5]: 4568 | RF (Relative Fluorescence) of Transfection of Jurkat Cells [6]: 3236 | RF (Relative Fluorescence), DOTMA/SEQ ID NO: 72/Peptide, HeLa Cells [7, 9]: 10162 | RF (Relative Fluorescence), DOTMA/SEQ ID NO: 72/Peptide, HeLa Cells [7, 10]: 9934 | RF (Relative Fluorescence), DOTMA/SEQ ID NO: 72/Peptide, HeLa Cells [7, 11]: 10792 | RF (Relative Fluorescence), DOTMA/SEQ ID NO: 72/Peptide, HeLa Cells [7, 12]: 9519 | transfection expression and the % cells transfected over the no peptide control [8]: increased

358 (GHRGPTGRPGKRGKQGQKGDS; Peptidic transfection agent) [compound 358]
RF (Relative Fluorescence) of Transfection of HeLa Cells [1]: 15132 | RF (Relative Fluorescence) of Transfection of HuVec Cells [2]: 25398 | RF (Relative Fluorescence) of Transfection of NL-1 iPS Cells [3]: 21956 | RF (Relative Fluorescence) of Transfection of C2C12 Cells [4]: 2271 | RF (Relative Fluorescence) of Transfection of Human Fibroblast Cells [5]: 5665 | RF (Relative Fluorescence) of Transfection of Jurkat Cells [6]: 18820 | RF (Relative Fluorescence), DOTMA/SEQ ID NO: 72/Peptide, HeLa Cells [7, 9]: 12331 | RF (Relative Fluorescence), DOTMA/SEQ ID NO: 72/Peptide, HeLa Cells [7, 10]: 12683 | RF (Relative Fluorescence), DOTMA/SEQ ID NO: 72/Peptide, HeLa Cells [7, 11]: 13686 | RF (Relative Fluorescence), DOTMA/SEQ ID NO: 72/Peptide, HeLa Cells [7, 12]: 11097 | transfection expression and the % cells transfected over the no peptide control [8]: increased
